Laboratory results from paper PMC3360746, “CD36 Inhibitors Reduce Postprandial Hypertriglyceridemia and Protect against Diabetic Dyslipidemia and Atherosclerosis” (PLoS ONE, 2012).

Target: T1, CD36 (Homo sapiens, UniProt P16671)
T1 construct: full length human CD36 stably expressed in HEK 293 cells
Assay: inhibition of Cy3-ox-LDL binding to HEK-CD36 cells at […]°C; affinity cross-linking of ox-LDL to CD36
Assay type: cell-based

T1 sequence (P16671 2-472): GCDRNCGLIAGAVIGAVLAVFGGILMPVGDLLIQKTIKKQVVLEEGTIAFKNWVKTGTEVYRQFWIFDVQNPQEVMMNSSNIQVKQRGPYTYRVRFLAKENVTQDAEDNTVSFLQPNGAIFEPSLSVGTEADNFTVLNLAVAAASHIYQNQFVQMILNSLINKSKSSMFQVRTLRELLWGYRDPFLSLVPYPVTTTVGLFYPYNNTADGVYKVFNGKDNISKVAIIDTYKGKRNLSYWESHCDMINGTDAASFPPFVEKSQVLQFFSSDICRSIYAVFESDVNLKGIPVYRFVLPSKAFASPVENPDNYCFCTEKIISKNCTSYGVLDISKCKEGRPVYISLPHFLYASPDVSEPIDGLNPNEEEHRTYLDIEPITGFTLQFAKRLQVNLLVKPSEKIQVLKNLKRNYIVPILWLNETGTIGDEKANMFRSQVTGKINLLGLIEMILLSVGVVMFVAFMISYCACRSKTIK

IC50 [nM] | SMILES
1000 ± 100 | COc1cc(O)c(/C=N/NC(=O)c2cc3ccccc3s2)c(OC)c1 [AP5055]
5000 ± 1000 | COc1cc(O)c(/C=N/NC(=O)c2ccc3nccn3c2)c(OC)c1 [AP5258]
